Substitutions are numbered along the chain they refer to. Where “and” joins values, the source holds several entries; their conditions need not be identical. Equal values may be shown once. Read-outs that look alike come from different tables or passages of the source.
Key:
GluE1αA m3 variant = molecular target: T1, GluE1αA m3 variant (Trichoplax adhaerens, UniProt B3SAW0, F306Y/I236T/S234G); details: 10 mM glutamate
T1 sequence (B3SAW0 1-341 S234G/I236T/F306Y): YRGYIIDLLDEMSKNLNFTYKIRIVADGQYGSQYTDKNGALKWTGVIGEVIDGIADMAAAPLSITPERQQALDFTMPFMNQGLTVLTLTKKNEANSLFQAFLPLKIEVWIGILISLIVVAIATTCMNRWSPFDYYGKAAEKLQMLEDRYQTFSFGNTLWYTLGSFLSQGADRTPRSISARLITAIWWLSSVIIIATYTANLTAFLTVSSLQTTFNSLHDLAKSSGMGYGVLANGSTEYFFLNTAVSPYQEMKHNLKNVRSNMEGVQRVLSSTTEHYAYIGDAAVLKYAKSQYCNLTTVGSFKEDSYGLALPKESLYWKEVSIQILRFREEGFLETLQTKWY

[1] = molecular target: T2, GluE1αA wildtype receptor (Trichoplax adhaerens, UniProt B3SAW0); details: wild type, 10 mM glycine
T2 sequence (B3SAW0 1-341): T1 sequence (B3SAW0 1-341 S234G/I236T/F306Y) with G234S, T236I, Y306F

GluE1αA wildtype [2] = format: cell-based, Trichoplax adhaerens
GluE1αA S642R [3] = format: cell-based, Trichoplax adhaerens
GluE1αA S642Q [4] = molecular target: T3, GluE1αA S642Q (Trichoplax adhaerens, UniProt B3SAW0, S167Q); format: cell-based
T3 sequence (B3SAW0 1-341 S167Q): T1 sequence (B3SAW0 1-341 S234G/I236T/F306Y) with S167Q, G234S, T236I, Y306F

GluE1αA D646A [5] = format: cell-based, Trichoplax adhaerens
GluE1αA S642N [6] = molecular target: T4, GluE1αA S642N (Trichoplax adhaerens, UniProt B3SAW0, S167N); format: cell-based
T4 sequence (B3SAW0 1-341 S167N): T1 sequence (B3SAW0 1-341 S234G/I236T/F306Y) with S167N, G234S, T236I, Y306F

GluE1αA S642Q plus D646A [7] = format: cell-based, Trichoplax adhaerens
GluE1αA S642Q plus D646A [8] = format: cell-based, Trichoplax adhaerens; remark: listed apart in the source
GluE1αA D646A [9] = format: cell-based, Trichoplax adhaerens; remark: listed apart in the source
GluE1αA S642N [10] = molecular target: T4, GluE1αA S642N; format: cell-based; remark: listed apart in the source
GluE1αA S642Q [11] = molecular target: T3, GluE1αA S642Q; format: cell-based; remark: listed apart in the source
GluE1αA wildtype [12] = format: cell-based, Trichoplax adhaerens; remark: listed apart in the source
GluE1αA S642R [13] = format: cell-based, Trichoplax adhaerens; remark: listed apart in the source
[14] = molecular target: T5, T. adhaerens GluE1αA receptor (wildtype) (Trichoplax adhaerens, UniProt B3SAW0); details: 2 s pulse of 3 mM glycine, wash of increasing duration, 2 s test pulse; single exponential; n = 10
From the text: (§1) The cDNA of the T. adhaerens GluE1αA receptor was cloned into the mammalian expression vector pIRES2-EGFP, using a 5’ nested primer that inserted a mammalian consensus Kozak sequence of […] (Supplementary Table 5). Several mutants/variants of this receptor where also prepared via site directed mutagenesis using standard procedures and primers listed in Supplementary Table 5. For electrophysiological comparisons, we commissioned GenScript (USA) to synthesize the cDNA of the human GluA2 […] receptor (NCBI accession number NP_001077088.2), which was cloned into the pIRES2-EGFP vector with a Kozak sequence flanking the start codon and restriction enzymes SalI and BamHI at the 5’ and 3’ ends of the cDNA, respectively. Receptor cDNAs in the various pIRES2 constructs were transfected into Chinese Hamster Ovary-K1 (CHO-K1; Sigma) cells cultured in Dulbecco’s Modified Eagle Medium Nutrient Mixture F-12 (DMEM/F12) supplemented with 10% Fetal Bovine Serum (FBS) and 1% penicillin-streptomycin at 37°C. Transfections were done with 2 μg of plasmid vector using the transfecting reagent PolyJet^TM (SignaGen Laboratories, USA) according to the manufacturer’s instructions and plated onto glass coverslips in 35 mm dishes the next day. Transfected cells were incubated at 28°C for 2 to 4 days, then coverslips were transferred to a new 60 mm dish with 5 mL of external recording solution. […] Agonists and pharmacological compounds used in this study were dissolved in corresponding external solutions. […] Patch pipettes were pulled using a P-1000 micropipette puller (Sutter, USA), from thick-walled borosilicate tubing (1.5 and 0.86 outer and inner diameter, respectively), to a resistance of between 1 and 6 megaohms.

[15] = test system: GluE1αA m3 variant (S653G, I655T, F732Y); format: cell-based, Trichoplax adhaerens; details: m3
From the text: (§2) As noted, a model has been put forward that defines iGluR ligand specificity based on a set of key amino acids in the LBD of iGluRs[11]. […] To the best of our knowledge, whether these few positions are indeed solely responsible for ligand specificity, and moreover, can be altered to switch specificity for natural ligands, has not been experimentally tested. […] We also created a triple mutant, with an additional phenylalanine to tyrosine mutation at position 732 (F732Y; m3 variant), to make the T. adhaerens epsilon receptor resemble GluN2A and GluA2 receptors from human, reasoning that this mutation might enhance glutamate sensitivity. We also generated a single F732Y mutant (m1 variant), to assess the contribution of this amino acid to ligand specificity in isolation.
as §1

[16] = test system: GluE1αA m1 variant (F732Y); format: cell-based, Trichoplax adhaerens
From the text: as §2, §1

[17] = test system: GluE1αA m2 variant (S653G, I655T); format: cell-based, Trichoplax adhaerens
From the text: as §2, §1

[18] = molecular target: T5, T. adhaerens GluE1αA receptor (wildtype); test: whole-cell patch clamp, agonist-evoked currents in CHO-K1 cells; format: cell-based
[19] = m1, ligand 10 mM, normalized to glycine

T5 sequence (B3SAW0 entry or part of it): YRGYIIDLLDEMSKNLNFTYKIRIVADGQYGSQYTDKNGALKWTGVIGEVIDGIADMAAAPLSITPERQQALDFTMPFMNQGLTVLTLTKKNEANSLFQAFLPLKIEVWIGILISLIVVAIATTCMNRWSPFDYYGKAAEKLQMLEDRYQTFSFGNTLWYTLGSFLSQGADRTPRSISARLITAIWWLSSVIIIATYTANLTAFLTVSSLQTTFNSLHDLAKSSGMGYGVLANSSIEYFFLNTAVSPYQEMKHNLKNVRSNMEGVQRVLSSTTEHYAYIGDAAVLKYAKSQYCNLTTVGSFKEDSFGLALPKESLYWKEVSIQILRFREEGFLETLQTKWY

## N#Cc1cc2[nH]c(=O)c(=O)[nH]c2cc1[N+](=O)[O-] [CNQX, 6-cyano-7-nitroquinoxaline-2,3-dione]
GluE1αA m3 variant; CNQX 1 µM
  current normalized to peak amplitude in the absence of CNQX, Avg: 1.22
  current normalized to peak amplitude in the absence of CNQX, single recording: 1.09 and 1.17 and 1.15 and 0.98 and 1.22 and 1.35 and 1.57
GluE1αA m3 variant; CNQX 10 µM
  current normalized to peak amplitude in the absence of CNQX, Avg: 0.42
  current normalized to peak amplitude in the absence of CNQX, single recording: 0.44 and 0.38 and 0.42 and 0.52 and 0.35
GluE1αA m3 variant; CNQX 100 µM
  current normalized to peak amplitude in the absence of CNQX, Avg: 0.08
[1]; CNQX 1 µM
  current normalized to peak amplitude in the absence of CNQX, Avg: 0.99
  current normalized to peak amplitude in the absence of CNQX, single recording: 1.07 and 0.91 and 0.98 and 1.00 and 1.01 and 0.97 and 0.94
[1]; CNQX 10 µM
  current normalized to peak amplitude in the absence of CNQX, Avg: 0.86
  current normalized to peak amplitude in the absence of CNQX, single recording: 0.80 and 0.79 and 0.93 and 0.89 and 0.85 and 0.87
[1]; CNQX 100 µM
  current normalized to peak amplitude in the absence of CNQX, Avg: 0.29

## [Cs+] [Cs]
GluE1αA wildtype [2]
  pCs/pCa: 1.08 and 0.98 and 1.16 and 1.36 and 1.19 and 1.14
GluE1αA S642R [3]
  pCs/pCa: 2.85 and 2.43 and 1.93 and 2.69 and 2.80 and 3.78
GluE1αA S642Q [4]
  pCs/pNa: 0.77 and 1.08 and 1.06 and 1.15 and 1.01 and 1.25
GluE1αA D646A [5]
  pCs/pNa: 1.01 and 0.96 and 0.98 and 0.97 and 1.08
GluE1αA S642N [6]
  pCs/pCa: 5.26 and 5.24 and 5.82 and 3.13 and 4.33 and 4.04
GluE1αA S642Q plus D646A [7]
  pCs/pNa: 1.15 and 1.09 and 1.10 and 1.24 and 1.08 and 1.02
GluE1αA S642Q plus D646A [8]
  Cs vs Ca, Avg (Figure S8e, normalized G-V): 1.00 and 1.03 and 0.98 and 1.02 and 1.15 and 1.27 and 1.40 and 1.41
  pCs/pCa: 7.48 and 6.98 and 7.28 and 7.47 and 4.49 and 4.01 and 6.97 and 6.40
GluE1αA D646A [9]
  Cs vs Ca, Avg (Figure S8e, normalized G-V): 1.00 and 0.97 and 0.90 and 0.81 and 0.79 and 0.75 and 0.88
  pCs/pCa: 1.12 and 1.10 and 0.98 and 1.02 and 1.05 and 0.97
GluE1αA S642N [10]
  pCs/pNa: 1.10 and 1.06 and 1.08 and 0.97 and 0.98 and 0.82
GluE1αA S642Q [11]
  pCs/pCa: 8.99 and 7.25 and 7.15 and 8.09 and 7.84 and 7.74 and 7.89
GluE1αA wildtype [12]
  Avg of recordings (Figure S7c, G-V, normalized): 0.58 and 0.69 and 0.78 and 0.80 and 1.00 and 0.93 and 0.77 and 0.60
  pCs/pNa: 0.95 and 0.96 and 0.99 and 0.93 and 0.92
GluE1αA S642R [13]
  pCs/pNa: 0.92 and 0.78 and 0.83 and 0.84 and 0.81 and 0.79 and 0.82

## NCC(=O)O [glycine]
[14]
  time constant of recovery from desensitization (τ): 184 ± 45 ms
[15]; agonist 1 mM
  normalized peak inward current, Avg: 0.0155
[15]; ligand 10 mM, normalized to glutamate
  normalized peak inward current, Avg: 0.0446
[16]; m1 (F732Y) variant, dose response of normalized current
  EC50: 300 ± 40 µM
[16]; m1, glycine 0.03 mM
  normalized current (dose response), Avg: 0.00429
  normalized current (dose response), single recording: 0.00434 and 0.00425
[16]; m1, glycine 0.1 mM
  normalized current (dose response), Avg: 0.0331
[16]; m1, glycine 0.3 mM
  normalized current (dose response), Avg: 0.50
  normalized current (dose response), single recording: 0.36 and 0.35 and 0.56 and 0.51 and 0.57 and 0.65 and 0.62
[16]; m1, glycine 1 mM
  normalized current (dose response), Avg: 0.98
  normalized current (dose response), single recording: 0.97 and 1.00 and 0.96
[16]; m1, glycine 3 mM
  normalized current (dose response), Avg: 0.99
  normalized current (dose response), single recording: 1.00 and 0.99 and 0.96
[16]; m1, glycine […]
  normalized current (dose response), Avg: 0.85
[16]; [19]
  normalized peak inward current, Avg: 1.00
  normalized peak inward current, single recording: 0.93 and 1.04 and 1.03 and 0.96
[17]
  normalized peak inward current, Avg: 0.37 and 0.38
  normalized peak inward current, single recording: 0.36 and 0.37 and 0.44 and 0.40 and 0.28 and 0.49 and 0.42 and 0.34
[18]
  activation of ligand-gated current: activated
  normalized peak inward current, Avg: 1.02 and 1.00
  sensitivity to agonist: robust currents

Reference: publication PMC12226733, “Evolution of iGluR ligand specificity, polyamine regulation, and ion selectivity inferred from a placozoan epsilon receptor” (Communications Biology, 2025)
